Results taken from patent US9163256B2, “Mutant receptors and their use in a nuclear receptor-based inducible gene expression system” (priority 2004, dated 2015).
Like-named read-outs stand apart in the source and are kept apart here.

Tests used:
Test in all cases: cell-based
CfEcR-DEF mutant F109N = CfEcR-DEF mutant F109N (Choristoneura fumiferana, UniProt O77255, F392N)
Procedure: (§1) This construct was prepared in the same way as in switch 1.1 above except wild-type CfEcR-DEF was replaced with mutant CfEcR-DEF comprising a ligand binding domain comprising a substitution mutation selected from Table 1 below.
(§2) DNAs were transfected into mouse NIH3T3 cells (ATCC) as follows. Standard methods for culture and maintenance of the cells were followed. Cells were harvested and plated 96-well plates at 2,500 cells per well, in 50 μL of growth medium containing 10% fetal bovine serum (FBS). Twenty-four hours later, the cells were treated with 35 μL of serum-free growth medium containing either dimethylsulfoxide (DMSO; control) or a DMSO solution of ligand. The cells were then transfected using Superfect (Qiagen Inc.) transfection reagent. For each well, 0.625 μL of Superfect was mixed with 14.2 μL of serum-free growth medium. 0.16 μg of reporter construct and 0.04 μg of each receptor construct were added to the transfection reagent mix. The contents of the transfection mix were mixed in a vortex mixer and let stand at room temperature for 30 minutes. At the end of incubation, 15 μL of transfection mix was added to the cells. The cells were maintained at 37° C. and 5% CO2 for 48 hours in 5% FBS.
(§3) Reporter Assays: Cells were harvested 40 hours after adding ligands. 125 μL of passive lysis buffer (part of Dual-Luciferase reporter assay system from Promega Corporation) were added to each well of the […] plate. The plates were placed on a rotary shaker for 15 minutes. Twenty μL of lysate were assayed. Luciferase activity was measured using Dual-Luciferase reporter assay system from Promega Corporation following the manufacturer's instructions. Fold induction (FI) activities were calculated by dividing relative light units (“RLU”) in ligand treated cells with RLU in DMSO treated cells (untreated control).

CfEcR-DEF mutant L234M = CfEcR-DEF mutant L234M (Choristoneura fumiferana, UniProt O77255, L517M)
Procedure: as §1, §2, §3

CfEcR-DEF mutant L132V = CfEcR-DEF mutant L132V (Choristoneura fumiferana, UniProt O77255, L415V)
Procedure: as §1, §2, §3

CfEcR-DEF mutant M125R = CfEcR-DEF mutant M125R (Choristoneura fumiferana, UniProt O77255, M408R)
Procedure: as §1, §2, §3

CfEcR-DEF mutant M92L = CfEcR-DEF mutant M92L (Choristoneura fumiferana, UniProt O77255, M375L)
Procedure: as §1, §2, §3

CfEcR-DEF mutant A110W = CfEcR-DEF mutant A110W (Choristoneura fumiferana, UniProt O77255, A393W)
Procedure: as §1, §2, §3

CfEcR-DEF mutant V96L = CfEcR-DEF mutant V96L (Choristoneura fumiferana, UniProt O77255, V379L)
Procedure: as §1, §2, §3

CfEcR-DEF mutant M92E = CfEcR-DEF mutant M92E (Choristoneura fumiferana, UniProt O77255, M375E)
Procedure: as §1, §2, §3

CfEcR-DEF mutant M54T = CfEcR-DEF mutant M54T (Choristoneura fumiferana, UniProt O77255, M337T)
CfEcR-DEF mutant M54T, sequence (O77255 entry or part of it M337T): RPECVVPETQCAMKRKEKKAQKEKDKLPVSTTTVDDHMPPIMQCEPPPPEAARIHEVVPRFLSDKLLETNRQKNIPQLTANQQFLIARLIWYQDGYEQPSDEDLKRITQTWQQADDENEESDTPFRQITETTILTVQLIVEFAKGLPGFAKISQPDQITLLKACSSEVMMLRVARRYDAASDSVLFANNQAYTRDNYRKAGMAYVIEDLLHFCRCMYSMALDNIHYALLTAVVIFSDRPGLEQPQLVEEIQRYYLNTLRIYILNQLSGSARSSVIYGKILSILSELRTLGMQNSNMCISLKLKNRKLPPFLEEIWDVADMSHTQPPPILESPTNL
CfEcR-DEF mutant M54T, sequence (P28702 299-449, further chain): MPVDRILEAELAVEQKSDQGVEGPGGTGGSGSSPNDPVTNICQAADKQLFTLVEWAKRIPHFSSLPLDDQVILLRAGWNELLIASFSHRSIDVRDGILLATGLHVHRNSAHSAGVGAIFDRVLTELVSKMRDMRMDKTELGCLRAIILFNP
Procedure: as §1, §2, §3

CfEcR-DEF mutant R95W = CfEcR-DEF mutant R95W (Choristoneura fumiferana, UniProt O77255, R378W)
CfEcR-DEF mutant R95W, sequence (O77255 entry or part of it R378W): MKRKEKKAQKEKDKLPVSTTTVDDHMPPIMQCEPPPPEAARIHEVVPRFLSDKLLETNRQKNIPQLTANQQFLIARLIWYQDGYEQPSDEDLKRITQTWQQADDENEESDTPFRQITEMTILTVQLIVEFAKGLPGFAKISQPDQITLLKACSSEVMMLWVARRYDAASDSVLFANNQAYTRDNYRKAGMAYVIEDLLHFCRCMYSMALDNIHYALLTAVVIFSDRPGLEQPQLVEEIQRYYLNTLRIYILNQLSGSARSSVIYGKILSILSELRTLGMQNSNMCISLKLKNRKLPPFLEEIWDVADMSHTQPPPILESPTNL
CfEcR-DEF mutant R95W, sequence (P28702 299-449, further chain): as the sequence (P28702 299-449, further chain) above
Procedure: as §1, §2, §3

CfEcR-DEF mutant M54W = CfEcR-DEF mutant M54W (Choristoneura fumiferana, UniProt O77255, M337W)
CfEcR-DEF mutant M54W, sequence (O77255 entry or part of it M337W): as the sequence (O77255 entry or part of it M337T) above, with T131W counted along it
CfEcR-DEF mutant M54W, sequence (P28702 299-449, further chain): as the sequence (P28702 299-449, further chain) above
Procedure: as §1, §2, §3

CfEcR-DEF mutant F109W = CfEcR-DEF mutant F109W (Choristoneura fumiferana, UniProt O77255, F392W)
CfEcR-DEF mutant F109W, sequence (O77255 entry or part of it F392W): as the sequence (O77255 entry or part of it M337T) above, with T131M, F186W counted along it
CfEcR-DEF mutant F109W, sequence (P28702 299-449, further chain): as the sequence (P28702 299-449, further chain) above
Procedure: as §1, §2, §3

CfEcR-DEF mutant I51L = CfEcR-DEF mutant I51L (Choristoneura fumiferana, UniProt O77255, I334L)
CfEcR-DEF mutant I51L, sequence (O77255 entry or part of it I334L): as the sequence (O77255 entry or part of it M337T) above, with I128L, T131M counted along it
CfEcR-DEF mutant I51L, sequence (P28702 299-449, further chain): as the sequence (P28702 299-449, further chain) above
Procedure: as §1, §2, §3

CfEcR-DEF mutant M125P = CfEcR-DEF mutant M125P (Choristoneura fumiferana, UniProt O77255, M408P)
Procedure: as §1, §2, §3

CfEcR-DEF mutant V96W = CfEcR-DEF mutant V96W (Choristoneura fumiferana, UniProt O77255, V379W)
CfEcR-DEF mutant V96W, sequence (O77255 entry or part of it V379W): as the sequence (O77255 entry or part of it R378W) above, with W160R, V161W counted along it
CfEcR-DEF mutant V96W, sequence (P28702 299-449, further chain): as the sequence (P28702 299-449, further chain) above
Procedure: as §1, §2, §3

CfEcR-DEF mutant T52L = CfEcR-DEF mutant T52L (Choristoneura fumiferana, UniProt O77255, T335L)
CfEcR-DEF mutant T52L, sequence (P28702 298-449): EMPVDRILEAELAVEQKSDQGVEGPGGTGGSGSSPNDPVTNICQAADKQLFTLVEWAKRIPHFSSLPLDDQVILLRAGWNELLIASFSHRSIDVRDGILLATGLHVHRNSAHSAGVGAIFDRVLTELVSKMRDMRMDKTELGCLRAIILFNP
CfEcR-DEF mutant T52L, sequence (O77255 entry or part of it T335L): as the sequence (O77255 entry or part of it M337T) above, with T129L, T131M counted along it
Procedure: as §1, §2, §3

CfEcR-DEF mutant R95M = CfEcR-DEF mutant R95M (Choristoneura fumiferana, UniProt O77255, R378M)
Procedure: as §1, §2, §3

CfEcR-DEF mutant W238P = CfEcR-DEF mutant W238P (Choristoneura fumiferana, UniProt O77255, W521P)
Procedure: as §1, §2, §3

CfEcR-DEF mutant M125C = CfEcR-DEF mutant M125C (Choristoneura fumiferana, UniProt O77255, M408C)
CfEcR-DEF mutant M125C, sequence (O77255 entry or part of it M408C): as the sequence (O77255 entry or part of it M337T) above, with T131M, M202C counted along it
CfEcR-DEF mutant M125C, sequence (P28702 299-449, further chain): as the sequence (P28702 299-449, further chain) above
Procedure: as §1, §2, §3

CfEcR-DEF mutant M125L = CfEcR-DEF mutant M125L (Choristoneura fumiferana, UniProt O77255, M408L)
Procedure: as §1, §2, §3

CfEcR-DEF mutant Y120W = CfEcR-DEF mutant Y120W (Choristoneura fumiferana, UniProt O77255, Y403W)
CfEcR-DEF mutant Y120W, sequence (O77255 entry or part of it Y403W): as the sequence (O77255 entry or part of it R378W) above, with W160R, Y185W counted along it
CfEcR-DEF mutant Y120W, sequence (P28702 299-449, further chain): as the sequence (P28702 299-449, further chain) above
Procedure: as §1, §2, §3

CfEcR-DEF mutant A110E = CfEcR-DEF mutant A110E (Choristoneura fumiferana, UniProt O77255, A393E)
Procedure: as §1, §2, §3

[1] = NIH3T3, 40 h, read-out: Rel Max FI

CC(C)(O)CC[C@@H](O)[C@](C)(O)[C@H]1CC[C@@]2(O)C3=CC(=O)[C@@H]4C[C@@H](O)[C@@H](O)C[C@]4(C)[C@H]3CC[C@]12C [20E, 20-hydroxyecdysone]
Rel Max FI (CfEcR-DEF mutant F109N; mutant F109N): 0 | EC50 (CfEcR-DEF mutant F109N; mutant F109N, read-out: EC50): > 33 µM | Rel Max FI (CfEcR-DEF mutant L234M; mutant L234M): 0 | EC50 (CfEcR-DEF mutant L234M; mutant L234M, read-out: EC50): > 33 µM | EC50 (CfEcR-DEF mutant L132V; mutant L132V, read-out: EC50): > 33 µM | Rel Max FI (CfEcR-DEF mutant L132V; mutant L132V, relative to max fold induction of GS-E ligand): 0 | Rel Max FI (CfEcR-DEF mutant M125R; mutant M125R): 0.01 | EC50 (CfEcR-DEF mutant M125R; mutant M125R, read-out: EC50): > 33 µM | Rel Max FI (CfEcR-DEF mutant M92L; mutant M92L): 0 | EC50 (CfEcR-DEF mutant M92L; mutant M92L, read-out: EC50): > 33 µM | Rel Max FI (CfEcR-DEF mutant A110W; mutant A110W): 0 | EC50 (CfEcR-DEF mutant A110W; mutant A110W, read-out: EC50): > 33 µM | Rel Max FI (CfEcR-DEF mutant V96L; mutant V96L): 0 | EC50 (CfEcR-DEF mutant V96L; mutant V96L, read-out: EC50): > 33 µM | Rel Max FI (CfEcR-DEF mutant M92E; mutant M92E): 0 | EC50 (CfEcR-DEF mutant M92E; mutant M92E, read-out: EC50): > 33 µM | EC50 (CfEcR-DEF mutant M54T; mutant M54T, read-out: EC50): > 33 µM | Rel Max FI (CfEcR-DEF mutant M54T; mutant M54T, relative to max fold induction of GS-E ligand): 0 | Rel Max FI (CfEcR-DEF mutant R95W; mutant R95W): 0 | EC50 (CfEcR-DEF mutant R95W; mutant R95W, read-out: EC50): > 33 µM | Rel Max FI (CfEcR-DEF mutant M54W; mutant M54W): 0 | EC50 (CfEcR-DEF mutant M54W; mutant M54W, read-out: EC50): > 33 µM | EC50 (CfEcR-DEF mutant F109W; mutant F109W, read-out: EC50): > 33 µM | Rel Max FI (CfEcR-DEF mutant F109W; mutant F109W, relative to max fold induction of GS-E ligand): 0 | Rel Max FI (CfEcR-DEF mutant I51L; mutant I51L): 0 | EC50 (CfEcR-DEF mutant I51L; mutant I51L, read-out: EC50): > 33 µM | Rel Max FI (CfEcR-DEF mutant M125P; mutant M125P): 1.29 | EC50 (CfEcR-DEF mutant M125P; mutant M125P, read-out: EC50): > 33 µM | Rel Max FI (CfEcR-DEF mutant V96W; mutant V96W): 0 | EC50 (CfEcR-DEF mutant V96W; mutant V96W, read-out: EC50): > 33 µM | EC50 (CfEcR-DEF mutant T52L; mutant T52L, read-out: EC50): > 33 µM | Rel Max FI (CfEcR-DEF mutant T52L; mutant T52L, relative to max fold induction of GS-E ligand): 0 | Rel Max FI (CfEcR-DEF mutant R95M; mutant R95M): 0 | EC50 (CfEcR-DEF mutant R95M; mutant R95M, read-out: EC50): > 33 µM | EC50 (CfEcR-DEF mutant W238P; mutant W238P, read-out: EC50): > 33 µM | Rel Max FI (CfEcR-DEF mutant W238P; mutant W238P, relative to max fold induction of GS-E ligand): 0 | Rel Max FI (CfEcR-DEF mutant M125C; mutant M125C): 0.22 | Rel Max FI (CfEcR-DEF mutant M125L; mutant M125L): 0 | EC50 (CfEcR-DEF mutant M125L; mutant M125L, read-out: EC50): > 33 µM | Rel Max FI (CfEcR-DEF mutant Y120W; mutant Y120W): 0 | EC50 (CfEcR-DEF mutant Y120W; mutant Y120W, read-out: EC50): > 33 µM | EC50 (CfEcR-DEF mutant A110E; mutant A110E, read-out: EC50): > 33 µM | Rel Max FI (CfEcR-DEF mutant A110E; mutant A110E, relative to max fold induction of GS-E ligand): 0

CCc1cccc(C(=O)NN(C(=O)c2cc(C)cc(C)c2)C(C)(C)C)c1C [RG-101691, 3,5-Dimethyl-benzoic acid N-tert-butyl-N′-(3-ethyl-2-methyl-benzoyl)-hydrazide]
EC50 (CfEcR-DEF mutant F109N): 3.95 µM | Emax (CfEcR-DEF mutant F109N; [1]): 85% | EC50 (CfEcR-DEF mutant L234M): 1.79 µM | Emax (CfEcR-DEF mutant L234M; [1]): 77% | EC50 (CfEcR-DEF mutant L132V): 0.66 µM | Emax (CfEcR-DEF mutant L132V; [1]): 77% | EC50 (CfEcR-DEF mutant M125R): ~10 µM | Emax (CfEcR-DEF mutant M125R; [1]): 1% | EC50 (CfEcR-DEF mutant M92L): 9.9 µM | Emax (CfEcR-DEF mutant M92L; [1]): 41% | EC50 (CfEcR-DEF mutant A110W): 1.06 µM | Emax (CfEcR-DEF mutant A110W; [1]): 80% | EC50 (CfEcR-DEF mutant V96L): 1.68 µM | Emax (CfEcR-DEF mutant V96L; [1]): 62% | EC50 (CfEcR-DEF mutant M92E): ~20 µM | Emax (CfEcR-DEF mutant M92E; [1]): 8% | EC50 (CfEcR-DEF mutant M54T): 0.03 µM | Emax (CfEcR-DEF mutant M54T; [1]): 71% | EC50 (CfEcR-DEF mutant R95W): ~10 µM | Emax (CfEcR-DEF mutant R95W; [1]): 37% | EC50 (CfEcR-DEF mutant M54W): 1.63 µM | Emax (CfEcR-DEF mutant M54W; [1]): 75% | EC50 (CfEcR-DEF mutant F109W): 0.49 µM | Emax (CfEcR-DEF mutant F109W; [1]): 79% | EC50 (CfEcR-DEF mutant I51L): 2.28 µM | Emax (CfEcR-DEF mutant I51L; [1]): 88% | EC50 (CfEcR-DEF mutant M125P): > 33 µM | Emax (CfEcR-DEF mutant M125P; [1]): 525% | EC50 (CfEcR-DEF mutant V96W): 3.61 µM | Emax (CfEcR-DEF mutant V96W; [1]): 75% | EC50 (CfEcR-DEF mutant T52L): 0.21 µM | Emax (CfEcR-DEF mutant T52L; [1]): 74% | EC50 (CfEcR-DEF mutant R95M): 3.3 µM | Emax (CfEcR-DEF mutant R95M; [1]): 57% | EC50 (CfEcR-DEF mutant W238P): 0.65 µM | Emax (CfEcR-DEF mutant W238P; [1]): 91% | EC50 (CfEcR-DEF mutant M125C; EC50, mutant M125C): ≥ 33 µM | Emax (CfEcR-DEF mutant M125C; [1]): 62% | EC50 (CfEcR-DEF mutant M125L): > 33 µM | Emax (CfEcR-DEF mutant M125L; [1]): 0% | EC50 (CfEcR-DEF mutant Y120W): 9.76 µM | Emax (CfEcR-DEF mutant Y120W; [1]): 89% | EC50 (CfEcR-DEF mutant A110E): 0.85 µM | Emax (CfEcR-DEF mutant A110E; [1]): 103%
